Each structure is given as a SMILES string.

In the test the target is mRNA-capping enzyme (Homo sapiens) (UniProt O60942). Put plainly: inhibition of human mRNA capping enzyme RNGTT – biochemical, DiFMUP fluorescence, recombinant (AID 406). Particulars: DiFMUP phosphatase fluorescence, at 50 µM, active compounds read high.
Chain of mRNA-capping enzyme (Homo sapiens) (O60942 whole entry, looked up): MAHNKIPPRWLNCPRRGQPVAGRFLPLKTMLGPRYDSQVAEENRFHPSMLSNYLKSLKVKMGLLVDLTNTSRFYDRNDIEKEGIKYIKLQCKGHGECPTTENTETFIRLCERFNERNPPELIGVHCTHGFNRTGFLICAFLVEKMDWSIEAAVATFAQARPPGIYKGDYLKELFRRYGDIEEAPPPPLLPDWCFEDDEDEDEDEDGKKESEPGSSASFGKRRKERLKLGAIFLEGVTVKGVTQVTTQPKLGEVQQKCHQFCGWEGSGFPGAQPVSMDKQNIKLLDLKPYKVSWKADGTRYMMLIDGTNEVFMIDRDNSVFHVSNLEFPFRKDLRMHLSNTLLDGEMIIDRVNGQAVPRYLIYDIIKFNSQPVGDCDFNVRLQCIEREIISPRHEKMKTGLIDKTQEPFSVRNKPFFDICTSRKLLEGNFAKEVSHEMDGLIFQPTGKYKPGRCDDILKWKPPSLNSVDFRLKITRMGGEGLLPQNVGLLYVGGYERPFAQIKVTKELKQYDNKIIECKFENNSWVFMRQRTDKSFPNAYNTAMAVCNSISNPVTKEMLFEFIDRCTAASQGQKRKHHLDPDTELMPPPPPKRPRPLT

`O=C(O)c1ccc([O-])cn1.OO.OO.[K+].[K+].[O]=[V]`: the inhibition (usually the relative decrease from the control value, in per cent) is 47%.
With `OO.OO.[K+].[O]=[V].c1ccc(-c2ccccn2)nc1` the figure was 41%.
With `CN(N=O)c1ccc(O)c(O)c1` the figure was 33%; with `O=C1NC(=S)S/C1=C\C=C\c1ccc([N+](=O)[O-])o1`, 60%.
As to `CC(=O)c1ccc2c(c1)C1C=CCC1C(C(=O)O)N2` (configuration not stated), the inhibition is 41%.
Take `O=C1NC(=S)NC(=O)C1=C/C=C/c1ccco1`: the inhibition was 22%.
With `O=C(O)c1ccc(O)cn1.OO.[O]=[V]`, the inhibition is 51%.
Consider `CC(C)(c1ccc(NS(=O)(=O)C(F)(F)F)cc1)c1ccc(C(C)(C)c2ccc(NS(=O)(=O)C(F)(F)F)cc2)cc1`, for which the inhibition is 37%.
With `OO.OO.[K+].[O]=[V].c1cnc2c(c1)ccc1cccnc12` the figure was 22%; with `O=C([O-])c1ccccn1.OO.OO.[K+].[K+].[O]=[V]`, 36%.
With `NC1=NC(=O)/C(=C/C=C/c2ccc([N+](=O)[O-])o2)S1` the figure was 33%; with `c1ccc([C@H]2CN3CCSC3=N2)cc1`, 29%.
